# US20130040882A1, “USE OF FIBROBLAST GROWTH FACTOR FRAGMENTS” (NOVARTIS AG, priority 2003, published 2013)
# System: uterine gene expression
# Test: Gene expression profiling (HGU133A) in the uterus of ovariectomized monkeys treated with estradiol, tamoxifen or raloxifene
# Assay type: in vivo, cynomolgus monkeys (Macaca fascicularis)
compound,measurement,setting,value
CC/C(=C(\c1ccccc1)c1ccc(OCCN(C)C)cc1)c1ccccc1 [tamoxifen],Uterine expression increase: Collagen type 1 alpha 2,compared with OVX controls,6.1 fold
same,Uterine expression increase: collagen type 1 alpha1,compared with OVX controls,3.5 fold
same,Uterine expression increase: collagen type III alpha 1,compared with OVX controls,3.4 fold
same,Uterine expression increase: collagen type IV alpha 1,compared with OVX controls,3.2 fold
same,Uterine expression increase: insulin-like GF binding protein 2 (36 kDa),compared with OVX controls,2.7 fold
same,"Uterine expression changes: IGFBP 5, latent TGF beta binding protein 1, cysteine-rich angiogenic inducer 61","cynomolgus monkey, in vivo",only modest changes
same,Uterine expression of the remaining signal transduction genes examined,tamoxifen: except for LDL receptor adaptor protein,downregulated
same,"Fold change relative to OVX: ATPase, H+ transporting, lysosomal 38 kda, V0 subunit d isoform 1","uterus, OVX monkeys",1.2 fold
same,"Fold change relative to OVX: ATPase, Na+/K+ transporting, beta 3 polypeptide","uterus, OVX monkeys",2.1 fold
same,Fold change relative to OVX: Biglycan,"uterus, OVX monkeys",2.0 fold
same,Fold change relative to OVX: CDC28 protein kinase regulatory subunit 2,"uterus, OVX monkeys",3.1 fold
same,"Fold change relative to OVX: Cadherin 11, type 2, OB-cadherin (osteoblast)","uterus, OVX monkeys",3.2 fold
same,"Fold change relative to OVX: Calcium channel, voltage-dependent, beta 2 subunit","uterus, OVX monkeys",0.5 fold
same,"Fold change relative to OVX: Catenin (cadherin-associated protein), alpha-like 1","uterus, OVX monkeys",0.7 fold
same,Fold change relative to OVX: Chitinase 3-like 1 (cartilage glycoprotein-39),"uterus, OVX monkeys",1.7 fold
same,Fold change relative to OVX: Chloride intracellular channel 4,"uterus, OVX monkeys",1.9 fold
same,Fold change relative to OVX: Chondroitin sulfate proteoglycan 2 (versican),"uterus, OVX monkeys",2.9 fold
same,"Fold change relative to OVX: Collagen, type I, alpha 1","uterus, OVX monkeys",3.5 fold
same,"Fold change relative to OVX: Collagen, type IV, alpha 2","uterus, OVX monkeys",2.2 fold
same,"Fold change relative to OVX: Collagen, type V, alpha 1","uterus, OVX monkeys",1.3 fold
same,"Fold change relative to OVX: Collagen, type VI, alpha 3","uterus, OVX monkeys",2.0 fold
same,"Fold change relative to OVX: Collagen, type VIII, alpha 2","uterus, OVX monkeys",1.8 fold
same,Fold change relative to OVX: Cyclin D1 (PRAD1: parathyroid adenomatosis 1),"uterus, OVX monkeys",1.8 fold
same,"Fold change relative to OVX: Cysteine-rich, angiogenic inducer, 61","uterus, OVX monkeys",1.6 fold
same,Fold change relative to OVX: Cytochrome c oxidase subunit via polypeptide 1,"uterus, OVX monkeys",1.3 fold
same,Fold change relative to OVX: Cytochrome c oxidase subunit viia polypeptide 2 (liver),"uterus, OVX monkeys",1.6 fold
same,Fold change relative to OVX: Dermatopontin,"uterus, OVX monkeys",1.8 fold
same,Fold change relative to OVX: Dishevelled associated activator of morphogenesis 1,"uterus, OVX monkeys",1.2 fold
same,Fold change relative to OVX: Fibroblast growth factor 2 (basic),"uterus, OVX monkeys",2.0 fold
same,Fold change relative to OVX: Fibulin 1,"uterus, OVX monkeys",1.9 fold
same,Fold change relative to OVX: Four and a half LIM domains 2,"uterus, OVX monkeys",1.7 fold
same,Fold change relative to OVX: G1 to S phase transition 1,"uterus, OVX monkeys",1.6 fold
same,Fold change relative to OVX: Growth associated protein 43,"uterus, OVX monkeys",1.9 fold
same,"Fold change relative to OVX: H2A histone family, member Y","uterus, OVX monkeys",1.7 fold
same,Fold change relative to OVX: Heparan sulfate proteoglycan 2 (perlecan),"uterus, OVX monkeys",2.2 fold
same,Fold change relative to OVX: Histone H2A.F/Z variant,"uterus, OVX monkeys",1.5 fold
same,"Fold change relative to OVX: Insulin-like growth factor binding protein 2, 36 kda","uterus, OVX monkeys",2.7 fold
same,Fold change relative to OVX: Insulin-like growth factor binding protein 5,"uterus, OVX monkeys",2.0 fold
same,"Fold change relative to OVX: Integrin, beta 5","uterus, OVX monkeys",1.5 fold
same,"Fold change relative to OVX: Intercrine-alpha, mrna sequence","uterus, OVX monkeys",1.5 fold
same,Fold change relative to OVX: LDL receptor adaptor protein,"uterus, OVX monkeys",1.2 fold
same,Fold change relative to OVX: LIM and senescent cell antigen-like domains 1,"uterus, OVX monkeys",2.9 fold
same,"Fold change relative to OVX: Laminin, beta 1","uterus, OVX monkeys",1.4 fold
same,Fold change relative to OVX: Latent transforming growth factor beta binding protein 1,"uterus, OVX monkeys",2.6 fold
same,Fold change relative to OVX: Matrix metalloproteinase 19,"uterus, OVX monkeys",1.6 fold
same,Fold change relative to OVX: Mitogen-activated protein kinase kinase kinase kinase 4,"uterus, OVX monkeys",0.6 fold
same,Fold change relative to OVX: Nidogen (enactin),"uterus, OVX monkeys",1.9 fold
same,"Fold change relative to OVX: Osteoglycin (osteoinductive factor, mimecan)","uterus, OVX monkeys",1.7 fold
same,Fold change relative to OVX: Peroxiredoxin 1,"uterus, OVX monkeys",1.7 fold
same,Fold change relative to OVX: Phosphatase and tensin homolog (mutated in multiple advanced cancers 1),"uterus, OVX monkeys",1.6 fold
same,Fold change relative to OVX: Phospholipid transfer protein,"uterus, OVX monkeys",1.4 fold
same,Fold change relative to OVX: Pituitary tumour-transforming 1 interacting protein,"uterus, OVX monkeys",1.9 fold
same,Fold change relative to OVX: Procollagen C-endopeptidase enhancer,"uterus, OVX monkeys",2.3 fold
same,"Fold change relative to OVX: Procollagen-proline, 2-oxoglutarate 4-dioxygenase (proline 4-hydroxylase), alpha polypeptide II","uterus, OVX monkeys",1.6 fold
same,Fold change relative to OVX: Progesterone receptor,"uterus, OVX monkeys",4.5 fold
same,Fold change relative to OVX: Protein tyrosine kinase 9,"uterus, OVX monkeys",1.7 fold
same,"Fold change relative to OVX: SET domain, bifurcated 1","uterus, OVX monkeys",1.9 fold
same,"Fold change relative to OVX: SPARC-like 1 (mast9, hevin)","uterus, OVX monkeys",1.3 fold
same,Fold change relative to OVX: Secreted frizzled-related protein 1,"uterus, OVX monkeys",2.2 fold
same,Fold change relative to OVX: Secreted frizzled-related protein 4,"uterus, OVX monkeys",2.9 fold
same,"Fold change relative to OVX: Secreted protein, acidic, cysteine-rich (osteonectin)","uterus, OVX monkeys",2.2 fold
same,"Fold change relative to OVX: Serine (or cysteine) proteinase inhibitor, clade H (heat shock protein 47), member 1, (collagen binding protein 1)","uterus, OVX monkeys",2.2 fold
same,"Fold change relative to OVX: Solute carrier family 22 (organic cation transporter), member 1-like","uterus, OVX monkeys",1.8 fold
same,"Fold change relative to OVX: Solute carrier family 25 (mitochondrial carrier; adenine nucleotide translocator), member 5","uterus, OVX monkeys",2.2 fold
same,Fold change relative to OVX: Stem cell growth factor; lymphocyte secreted C-type lectin,"uterus, OVX monkeys",1.4 fold
same,Fold change relative to OVX: Tenascin C (hexabrachion),"uterus, OVX monkeys",3.8 fold
same,Fold change relative to OVX: Testis Enhanced Gene Transcript (Bax Inhibitor 1),"uterus, OVX monkeys",1.5 fold
same,Fold change relative to OVX: Thioredoxin interacting protein,"uterus, OVX monkeys",0.6 fold
same,"Fold change relative to OVX: Transforming growth factor, beta-induced, 68 kda","uterus, OVX monkeys",2.2 fold
same,"Fold change relative to OVX: Ubiquinol-cytochrome c reductase, Rieske iron-sulfur polypeptide 1","uterus, OVX monkeys",1.4 fold
same,"Fold change relative to OVX: Wingless-type MMTV integration site family, member 2B","uterus, OVX monkeys",1.9 fold
same,"Fold change relative to OVX: Wingless-type MMTV integration site family, member 16","uterus, OVX monkeys",1.1 fold
same,"Fold change relative to SHAM control: ATPase, H+ transporting, lysosomal 38 kda, V0 subunit d isoform 1","uterus, OVX monkeys",1.0 fold
same,"Fold change relative to SHAM control: ATPase, Na+/K+ transporting, beta 3 polypeptide","uterus, OVX monkeys",1.2 fold
same,Fold change relative to SHAM control: Biglycan,"uterus, OVX monkeys",0.7 fold
same,Fold change relative to SHAM control: CDC28 protein kinase regulatory subunit 2,"uterus, OVX monkeys",1.9 fold
same,"Fold change relative to SHAM control: Cadherin 11, type 2, OB-cadherin (osteoblast)","uterus, OVX monkeys",1.9 fold
same,"Fold change relative to SHAM control: Calcium channel, voltage-dependent, beta 2 subunit","uterus, OVX monkeys",0.9 fold
same,"Fold change relative to SHAM control: Catenin (cadherin-associated protein), alpha-like 1","uterus, OVX monkeys",1.5 fold
same,Fold change relative to SHAM control: Chitinase 3-like 1 (cartilage glycoprotein-39),"uterus, OVX monkeys",1.2 fold
same,Fold change relative to SHAM control: Chloride intracellular channel 4,"uterus, OVX monkeys",1.1 fold
same,Fold change relative to SHAM control: Chondroitin sulfate proteoglycan 2 (versican),"uterus, OVX monkeys",2.1 fold
same,"Fold change relative to SHAM control: Collagen, type I, alpha 1","uterus, OVX monkeys",1.3 fold
same,"Fold change relative to SHAM control: Collagen, type IV, alpha 2","uterus, OVX monkeys",1.3 fold
same,"Fold change relative to SHAM control: Collagen, type V, alpha 1","uterus, OVX monkeys",0.6 fold
same,"Fold change relative to SHAM control: Collagen, type VI, alpha 3","uterus, OVX monkeys",1.1 fold
same,"Fold change relative to SHAM control: Collagen, type VIII, alpha 2","uterus, OVX monkeys",1.1 fold
same,Fold change relative to SHAM control: Cyclin D1 (PRAD1: parathyroid adenomatosis 1),"uterus, OVX monkeys",2.0 fold
same,"Fold change relative to SHAM control: Cysteine-rich, angiogenic inducer, 61","uterus, OVX monkeys",0.9 fold
same,Fold change relative to SHAM control: Cytochrome c oxidase subunit via polypeptide 1,"uterus, OVX monkeys",1.2 fold
same,Fold change relative to SHAM control: Cytochrome c oxidase subunit viia polypeptide 2 (liver),"uterus, OVX monkeys",1.7 fold
same,Fold change relative to SHAM control: Dermatopontin,"uterus, OVX monkeys",1.0 fold
same,Fold change relative to SHAM control: Dishevelled associated activator of morphogenesis 1,"uterus, OVX monkeys",0.8 fold
same,Fold change relative to SHAM control: Fibroblast growth factor 2 (basic),"uterus, OVX monkeys",1.0 fold
same,Fold change relative to SHAM control: Fibulin 1,"uterus, OVX monkeys",1.1 fold
same,Fold change relative to SHAM control: Four and a half LIM domains 2,"uterus, OVX monkeys",1.1 fold
same,Fold change relative to SHAM control: G1 to S phase transition 1,"uterus, OVX monkeys",1.3 fold
